As a reminder, the IC50 is the concentration that inhibits the measured activity by half.

We go through 29 molecules from patent US8178570B2, “Tie-2 modulators and methods of use” (Exelixis, Inc., priority 2003, dated 2012).

The experiment deals with Tie-2 (Homo sapiens, UniProt Q02763). The experiment can be described thus: Tie-2 tyrosine kinase activity: kinase-dependent ATP consumption (pEY substrate, luciferase/luciferin chemiluminescence) or 33P-ATP incorporation into substrate. The experiment is classed as biochemical. As to conditions: Tie-2 (human enzyme) inhibition, Table 2, class symbols A-D. In outline: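 Values are IC50 categories: A below 50 nM, B above 50 to 1000 nM, C above 1000 to below 10,000 nM, D 10,000 nM or more. They were measured by 33P-ATP phosphate transfer onto a generic substrate bound to the plate (scintillation), or by luminescent luciferase detection of ATP used with pEY.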
Sequence of Tie-2 (Q02763 23-1124): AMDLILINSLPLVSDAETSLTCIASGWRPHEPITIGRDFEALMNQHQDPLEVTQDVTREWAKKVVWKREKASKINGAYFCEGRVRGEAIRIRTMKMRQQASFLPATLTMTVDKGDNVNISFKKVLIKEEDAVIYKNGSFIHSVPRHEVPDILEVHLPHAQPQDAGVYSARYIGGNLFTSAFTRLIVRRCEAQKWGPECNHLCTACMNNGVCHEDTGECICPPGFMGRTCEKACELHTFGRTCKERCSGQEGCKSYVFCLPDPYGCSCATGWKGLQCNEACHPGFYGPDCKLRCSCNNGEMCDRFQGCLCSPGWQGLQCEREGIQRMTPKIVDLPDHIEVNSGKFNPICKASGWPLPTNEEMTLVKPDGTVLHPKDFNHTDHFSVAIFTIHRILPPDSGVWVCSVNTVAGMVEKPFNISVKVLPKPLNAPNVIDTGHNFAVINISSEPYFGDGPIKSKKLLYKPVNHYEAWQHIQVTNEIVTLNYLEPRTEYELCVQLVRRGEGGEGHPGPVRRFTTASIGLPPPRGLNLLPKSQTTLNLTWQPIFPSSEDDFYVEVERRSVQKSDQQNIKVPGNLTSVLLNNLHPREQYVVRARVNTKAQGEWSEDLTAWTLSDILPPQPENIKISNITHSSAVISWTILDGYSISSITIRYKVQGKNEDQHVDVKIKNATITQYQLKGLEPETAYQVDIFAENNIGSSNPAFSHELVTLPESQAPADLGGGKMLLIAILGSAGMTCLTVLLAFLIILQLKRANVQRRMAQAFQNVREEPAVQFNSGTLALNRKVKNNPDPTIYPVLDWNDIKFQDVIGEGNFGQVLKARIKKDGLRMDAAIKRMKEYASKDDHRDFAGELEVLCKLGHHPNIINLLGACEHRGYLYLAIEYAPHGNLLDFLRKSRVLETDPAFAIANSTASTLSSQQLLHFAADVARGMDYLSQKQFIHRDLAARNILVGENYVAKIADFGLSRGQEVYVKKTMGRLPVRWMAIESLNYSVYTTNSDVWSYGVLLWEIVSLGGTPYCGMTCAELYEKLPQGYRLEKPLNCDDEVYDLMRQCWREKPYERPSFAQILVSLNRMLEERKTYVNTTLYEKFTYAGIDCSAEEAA
As to `CCCCCCCNC(=O)N(CCn1nc(-c2ccncc2)nc1-c1ccc(OC)c(Cl)c1)C1CCCC1` [Entry 104, N-(2-{5-[3-chloro-4-(methyloxy)phenyl]-3-pyridin-4-yl-1H-1,2,4-triazol-1-yl}ethyl)-N-cyclopentyl-N′-heptylurea], the IC50 is not below 10 µM.
`COc1ccc(-c2nc(-c3ccncc3)nn2CCN(C(=O)Nc2cccc(Cl)c2)C2CCCC2)cc1Cl` [Entry 105, N-(2-{5-[3-chloro-4-(methyloxy)phenyl]-3-pyridin-4-yl-1H-1,2,4-triazol-1-yl}ethyl)-N′-(3-chlorophenyl)-N-cyclopentylurea] yielded an IC50 not below 10 µM.
`COc1ccc(-c2nc(-c3ccncc3)nn2CCN(C(=O)Nc2cccc(C)c2)C2CCCC2)cc1Cl` [Entry 106, N-(2-{5-[3-chloro-4-(methyloxy)phenyl]-3-pyridin-4-yl-1H-1,2,4-triazol-1-yl}ethyl)-N-cyclopentyl-N′-(3-methylphenyl)urea] registered an IC50 not below 10 µM.
`COc1ccc(-c2nc(-c3ccncc3)nn2CCN(C(=O)NC(C)(C)C)C2CCCC2)cc1Cl` [Entry 107, N-(2-{5-[3-chloro-4-(methyloxy)phenyl]-3-pyridin-4-yl-1H-1,2,4-triazol-1-yl}ethyl)-N-cyclopentyl-N′-(1,1-dimethylethyl)urea] yielded an IC50 not below 10 µM.
Then `COc1ccc(-c2nc(-c3ccncc3)nn2CCN(C(=O)NC(C)C)C2CCCC2)cc1Cl` [Entry 108, N-(2-{5-[3-chloro-4-(methyloxy)phenyl]-3-pyridin-4-yl-1H-1,2,4-triazol-1-yl}ethyl)-N-cyclopentyl-N′-(1-methylethyl)urea], with not below 10 µM; and `CCNC(=O)N(CCn1nc(-c2ccncc2)nc1-c1ccc(OC)c(Cl)c1)C1CCCC1` [Entry 109, N-(2-{5-[3-chloro-4-(methyloxy)phenyl]-3-pyridin-4-yl-1H-1,2,4-triazol-1-yl}ethyl)-N-cyclopentyl-N′-ethylurea], with not below 10 µM; and `CCCNC(=O)N(CCn1nc(-c2ccncc2)nc1-c1ccc(OC)c(Cl)c1)C1CCCC1` [Entry 110, N-(2-{5-[3-chloro-4-(methyloxy)phenyl]-3-pyridin-4-yl-1H-1,2,4-triazol-1-yl}ethyl)-N-cyclopentyl-N′-propylurea], with not below 10 µM.
With `CCOc1ccc(NC(=O)N(CCn2nc(-c3ccncc3)nc2-c2ccc(OC)c(Cl)c2)C2CCCC2)cc1` [Entry 111, N-(2-{5-[3-chloro-4-(methyloxy)phenyl]-3-pyridin-4-yl-1H-1,2,4-triazol-1-yl}ethyl)-N-cyclopentyl-N′-[4-(ethyloxy)phenyl]urea], the IC50 was in the range of 1 to 10 µM.
Turning to `CCc1ccc(NC(=O)N(CCn2nc(-c3ccncc3)nc2-c2ccc(OC)c(Cl)c2)C2CCCC2)cc1` [Entry 112, N-(2-{5-[3-chloro-4-(methyloxy)phenyl]-3-pyridin-4-yl-1H-1,2,4-triazol-1-yl}ethyl)-N-cyclopentyl-N′-(4-ethylphenyl)urea], the IC50 was not below 10 µM.
`COc1ccc(-c2nc(-c3ccncc3)nn2CCN(C(=O)NCCc2ccccc2)C2CCCC2)cc1Cl` [Entry 113, N-(2-{5-[3-chloro-4-(methyloxy)phenyl]-3-pyridin-4-yl-1H-1,2,4-triazol-1-yl}ethyl)-N-cyclopentyl-N′-(2-phenylethyl)urea] registered a half-inhibitory concentration (IC50) not below 10 µM.
Molecule `C=C(C)c1cccc(C(C)(C)NC(=O)N(CCn2nc(-c3ccncc3)nc2-c2ccc(OC)c(Cl)c2)C2CCCC2)c1` [Entry 114, N-(2-{5-[3-chloro-4-(methyloxy)phenyl]-3-pyridin-4-yl-1H-1,2,4-triazol-1-yl}ethyl)-N-cyclopentyl-N′-{1-methyl-1-[3-(1-methylethenyl)phenyl]ethyl}urea] came in with an IC50 not below 10 µM.
`COc1ccc(-c2nc(-c3ccncc3)nn2CCN(C(=O)Nc2ccccc2F)C2CCCC2)cc1Cl` [Entry 115, N-(2-{5-[3-chloro-4-(methyloxy)phenyl]-3-pyridin-4-yl-1H-1,2,4-triazol-1-yl}ethyl)-N-cyclopentyl-N′-(2-fluorophenyl)urea] came in with an IC50 not below 10 µM.
As for `COc1ccc(-c2nc(-c3ccncc3)nn2CCN(C(=O)Nc2ccc(F)cc2F)C2CCCC2)cc1Cl` [Entry 116, N-(2-{5-[3-chloro-4-(methyloxy)phenyl]-3-pyridin-4-yl-1H-1,2,4-triazol-1-yl}ethyl)-N-cyclopentyl-N′-(2,4-difluorophenyl)urea], the IC50 is not below 10 µM.
In turn, `COc1ccc(-c2nc(-c3ccncc3)nn2CCN(C(=O)Nc2c(F)cccc2F)C2CCCC2)cc1Cl` [Entry 117, N-(2-{5-[3-chloro-4-(methyloxy)phenyl]-3-pyridin-4-yl-1H-1,2,4-triazol-1-yl}ethyl)-N-cyclopentyl-N′-(2,6-difluorophenyl)urea] showed an IC50 not below 10 µM.
Molecule `COc1ccc(-c2nc(-c3ccncc3)nn2CCN(C(=O)Nc2ccccc2Cl)C2CCCC2)cc1Cl` [Entry 118, N-(2-{5-[3-chloro-4-(methyloxy)phenyl]-3-pyridin-4-yl-1H-1,2,4-triazol-1-yl}ethyl)-N′-(2-chlorophenyl)-N-cyclopentylurea] gave an IC50 of 1 to 10 µM.
In turn, `COc1ccc(-c2nc(-c3ccncc3)nn2CCN(C(=O)Nc2cccc(Cl)c2Cl)C2CCCC2)cc1Cl` [Entry 119, N-(2-{5-[3-chloro-4-(methyloxy)phenyl]-3-pyridin-4-yl-1H-1,2,4-triazol-1-yl}ethyl)-N-cyclopentyl-N′-(2,3-dichlorophenyl)urea] came in with an IC50 not below 10 µM.
`COc1ccc(OC)c(NC(=O)N(CCn2nc(-c3ccncc3)nc2-c2ccc(OC)c(Cl)c2)C2CCCC2)c1` [Entry 120, N′-[2,5-bis(methyloxy)phenyl]-N-(2-{5-[3-chloro-4-(methyloxy)phenyl]-3-pyridin-4-yl-1H-1,2,4-triazol-1-yl}ethyl)-N-cyclopentylurea] yielded an IC50 not below 10 µM.
For `CCOc1ccccc1NC(=O)N(CCn1nc(-c2ccncc2)nc1-c1ccc(OC)c(Cl)c1)C1CCCC1` [Entry 121, N-(2-{5-[3-chloro-4-(methyloxy)phenyl]-3-pyridin-4-yl-1H-1,2,4-triazol-1-yl}ethyl)-N-cyclopentyl-N′-[2-(ethyloxy)phenyl]urea], the IC50 lay in the range of 1 to 10 µM.
In turn, `COc1ccc(-c2nc(-c3ccncc3)nn2CCN(C(=O)Nc2ccccc2C(F)(F)F)C2CCCC2)cc1Cl` [Entry 122, N-(2-{5-[3-chloro-4-(methyloxy)phenyl]-3-pyridin-4-yl-1H-1,2,4-triazol-1-yl}ethyl)-N-cyclopentyl-N′-[2-(trifluoromethyl)phenyl]urea] returned an IC50 not below 10 µM.
The figure for `COc1ccc(-c2nc(-c3ccncc3)nn2CCN(C(=O)Nc2c(C)cccc2C)C2CCCC2)cc1Cl` [Entry 123, N-(2-{5-[3-chloro-4-(methyloxy)phenyl]-3-pyridin-4-yl-1H-1,2,4-triazol-1-yl}ethyl)-N-cyclopentyl-N′-(2,6-dimethylphenyl)urea] is not below 10 µM; for `COc1ccc(-c2nc(-c3ccncc3)nn2CCN(C(=O)Nc2ccc(C(F)(F)F)cc2)C2CCCC2)cc1Cl` [Entry 124, N-(2-{5-[3-chloro-4-(methyloxy)phenyl]-3-pyridin-4-yl-1H-1,2,4-triazol-1-yl}ethyl)-N-cyclopentyl-N′-[4-(trifluoromethyl)phenyl]urea] it is not below 10 µM.
For the molecule `COc1ccc(-c2nc(-c3ccncc3)nn2CCN(C(=O)N[C@@H](C)c2ccccc2)C2CCCC2)cc1Cl` [Entry 125, N-(2-{5-[3-chloro-4-(methyloxy)phenyl]-3-pyridin-4-yl-1H-1,2,4-triazol-1-yl}ethyl)-N-cyclopentyl-N′-[(1S)-1-phenylethyl]urea], the IC50 was 1 to 10 µM.
The molecule `COc1ccc(-c2nc(-c3ccncc3)nn2CCN(C(=O)Nc2cc(Cl)c(Cl)cc2Cl)C2CCCC2)cc1Cl` [Entry 126, N-(2-{5-[3-chloro-4-(methyloxy)phenyl]-3-pyridin-4-yl-1H-1,2,4-triazol-1-yl}ethyl)-N-cyclopentyl-N′-(2,4,5-trichlorophenyl)urea] yielded an IC50 not below 10 µM.
`COc1ccc(-c2nc(-c3ccncc3)nn2CCN(C(=O)Nc2cccc(C)c2C)C2CCCC2)cc1Cl` [Entry 127, N-(2-{5-[3-chloro-4-(methyloxy)phenyl]-3-pyridin-4-yl-1H-1,2,4-triazol-1-yl}ethyl)-N-cyclopentyl-N′-(2,3-dimethylphenyl)urea] came in with an IC50 of 1 to 10 µM.
In turn, `COc1ccc(-c2nc(-c3ccncc3)nn2CCN(C(=O)Nc2ccc(C)cc2C)C2CCCC2)cc1Cl` [Entry 128, N-(2-{5-[3-chloro-4-(methyloxy)phenyl]-3-pyridin-4-yl-1H-1,2,4-triazol-1-yl}ethyl)-N-cyclopentyl-N′-(2,4-dimethylphenyl)urea] came in with an IC50 not below 10 µM.
`COc1ccc(-c2nc(-c3ccncc3)nn2CCN(C(=O)Nc2ccc(C)c(Cl)c2)C2CCCC2)cc1Cl` [Entry 129, N-(2-{5-[3-chloro-4-(methyloxy)phenyl]-3-pyridin-4-yl-1H-1,2,4-triazol-1-yl}ethyl)-N′-(3-chloro-4-methylphenyl)-N-cyclopentylurea] had an IC50 not below 10 µM.
`COc1ccc(-c2nc(-c3ccncc3)nn2CCN(C(=O)Nc2c(C)cccc2C(C)(C)C)C2CCCC2)cc1Cl` [Entry 130, N-(2-{5-[3-chloro-4-(methyloxy)phenyl]-3-pyridin-4-yl-1H-1,2,4-triazol-1-yl}ethyl)-N-cyclopentyl-N′-[2-(1,1-dimethylethyl)-6-methylphenyl]urea] displayed an IC50 not below 10 µM.
`CCCCOc1ccc(NC(=O)N(CCn2nc(-c3ccncc3)nc2-c2ccc(OC)c(Cl)c2)C2CCCC2)cc1` [Entry 131, N′-[4-(butyloxy)phenyl]-N-(2-{5-[3-chloro-4-(methyloxy)phenyl]-3-pyridin-4-yl-1H-1,2,4-triazol-1-yl}ethyl)-N-cyclopentylurea] had an IC50 not below 10 µM.
Consider `COc1ccc(-c2nc(-c3ccncc3)nn2CCN(C(=O)Nc2cccc([N+](=O)[O-])c2C)C2CCCC2)cc1Cl` [Entry 132, N-(2-{5-[3-chloro-4-(methyloxy)phenyl]-3-pyridin-4-yl-1H-1,2,4-triazol-1-yl}ethyl)-N-cyclopentyl-N′-(2-methyl-3-nitrophenyl)urea], for which the IC50 is not below 10 µM.
